Results from ChEMBL document CHEMBL1240489, “Discovery of N-{1-[3-(3-oxo-2,3-dihydrobenzo[1,4]oxazin-4-yl)propyl]piperidin-4-yl}-2-phenylacetamide (Lu AE51090): an allosteric muscarinic M1 receptor agonist with unprecedented selectivity and procognitive potential” (J Med Chem, 2010).

How the values were obtained:
[1] = target: T1, Muscarinic acetylcholine receptor M2 (Homo sapiens) (UniProt P08172); assay: Agonist activity at human muscarinic M2 receptor expressed in CHO-K1 cells coexpressing Galpha16 subunit assessed as increase of acetylcholine-induced calcium flux at 10 uM by FLIPR assay relative to acetylcholine; format: functional, cell-based
T1 sequence (whole entry): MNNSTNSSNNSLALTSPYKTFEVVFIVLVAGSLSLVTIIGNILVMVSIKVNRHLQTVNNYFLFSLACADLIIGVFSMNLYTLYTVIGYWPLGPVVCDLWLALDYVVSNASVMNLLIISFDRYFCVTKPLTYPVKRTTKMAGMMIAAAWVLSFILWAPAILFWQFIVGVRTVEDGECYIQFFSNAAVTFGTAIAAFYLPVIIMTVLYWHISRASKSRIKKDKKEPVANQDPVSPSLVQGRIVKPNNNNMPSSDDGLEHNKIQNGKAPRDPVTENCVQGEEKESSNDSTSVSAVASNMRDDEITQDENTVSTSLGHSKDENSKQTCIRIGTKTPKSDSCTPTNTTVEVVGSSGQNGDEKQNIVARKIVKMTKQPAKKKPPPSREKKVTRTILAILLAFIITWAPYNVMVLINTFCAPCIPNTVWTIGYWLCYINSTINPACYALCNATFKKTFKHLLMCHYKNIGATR

[2] = target: Sodium-dependent noradrenaline transporter (Homo sapiens, UniProt P23975); assay: Binding affinity to human NE transporter by radioligand displacement assay
[3] = target: Alpha-1D adrenergic receptor (Homo sapiens, UniProt P25100); assay: Binding affinity to human adrenergic Alpha-1D receptor by radioligand displacement assay
[4] = Drug level in C57/6J mouse brain at 20 mg/kg, sc after 60 mins; format: ADME, organism-based; set-up: dose 20 mg/kg, route subcutaneous; settings: read-out: Activity
[5] = Binding affinity to PDE4 by enzyme assay
[6] = target: D(1A) dopamine receptor (Homo sapiens, UniProt P21728); assay: Binding affinity to human dopamine D1 receptor by radioligand displacement assay
[7] = target: Muscarinic acetylcholine receptor M1 (Homo sapiens, UniProt P11229, Y381A)
[8] = Clearance in rat plasma at 1 mg/kg, iv and 2 mg/kg, po; format: ADME, organism-based
[9] = target: Phosphodiesterase 4 (Homo sapiens, UniProt P27815+Q08499+Q07343+Q08493); assay: Binding affinity to human PDE4 rolipram binding site by radioligand displacement assay; format: protein assay
[10] = target: T2, Muscarinic acetylcholine receptor M4 (Homo sapiens, UniProt P08173); assay: Displacement of [3H]-4-DAMP from human muscarinic M4 receptor expressed in BHK-21 cells; format: cell-based
T2 sequence (P08173 whole entry): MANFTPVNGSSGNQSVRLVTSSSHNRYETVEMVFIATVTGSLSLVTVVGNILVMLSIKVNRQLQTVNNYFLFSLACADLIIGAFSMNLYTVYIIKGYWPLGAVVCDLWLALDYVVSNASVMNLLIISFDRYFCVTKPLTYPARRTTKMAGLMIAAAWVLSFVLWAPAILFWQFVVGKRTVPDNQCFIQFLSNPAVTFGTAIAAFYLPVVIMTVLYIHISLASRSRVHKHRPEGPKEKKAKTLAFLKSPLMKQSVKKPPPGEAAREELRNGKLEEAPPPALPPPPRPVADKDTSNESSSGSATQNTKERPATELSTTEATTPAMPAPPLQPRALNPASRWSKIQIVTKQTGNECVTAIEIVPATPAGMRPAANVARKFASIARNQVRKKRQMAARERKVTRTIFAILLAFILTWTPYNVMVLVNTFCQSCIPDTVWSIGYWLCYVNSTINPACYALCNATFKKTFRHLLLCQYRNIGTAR

[11] = Binding affinity to PDE3 by enzyme assay
[12] = target: Amine oxidase [flavin-containing] A (Homo sapiens, UniProt P21397); assay: Binding affinity to MAOA by radioligand displacement assay
[13] = target: T3, D(2) dopamine receptor (Homo sapiens, UniProt P14416); assay: Binding affinity to human dopamine D2S receptor by radioligand displacement assay
[14] = target: Muscarinic acetylcholine receptor M3 (Homo sapiens, UniProt P20309); assay: Binding affinity to human muscarinic M3 receptor by radioligand displacement assay
[15] = target: T3, D(2) dopamine receptor; assay: Binding affinity to human D2S agonist site receptor by radioligand displacement assay
[16] = target: Adenosine receptor A3 (Homo sapiens, UniProt P0DMS8); assay: Binding affinity to human adenosine A3 receptor by radioligand displacement assay
[17] = target: Beta-1 adrenergic receptor (Homo sapiens, UniProt P08588); assay: Binding affinity to human adrenergic beta-1 receptor by radioligand displacement assay
[18] = target: 5-hydroxytryptamine receptor 4 (Homo sapiens, UniProt Q13639); assay: Binding affinity to human 5-HT4e receptor by radioligand displacement assay
[19] = target: Ribosyldihydronicotinamide dehydrogenase [quinone] (Homo sapiens, UniProt P16083); assay: Binding affinity to ML2 (MT3) receptor by radioligand displacement assay
[20] = target: Histamine H1 receptor (Homo sapiens, UniProt P35367); assay: Binding affinity to human histamine H1 receptor by radioligand displacement assay
[21] = Tmax in rat plasma at 2 mg/kg, po; format: ADME, organism-based; set-up: dose 2 mg/kg, route oral
[22] = target: 5-hydroxytryptamine receptor 1B (Homo sapiens, UniProt P28222); assay: Binding affinity to 5-HT1B receptor by radioligand displacement assay
[23] = target: 5-hydroxytryptamine receptor 2A (Homo sapiens, UniProt P28223); assay: Binding affinity to human 5-HT2A agonist site receptor by radioligand displacement assay
[24] = test system: Mus musculus; assay: Reversal of 0 seconds delay-induced memory decay in C57Bl/6J mouse assessed as positive alteration at 0.31 to 20 mg/kg, sc for 1 week by Y-maze test; format: functional; settings: dose mg/kg 0.31-20; route subcutaneous
[25] = Binding affinity to L-type Ca2+ channel DHP binding site by radioligand displacement assay
[26] = test system: Mus musculus; assay: Reversal of 60 seconds delay-induced memory decay in sc dosed C57Bl/6J mouse assessed as positive alteration administered for 1 week by Y-maze test; format: functional, organism-based
[27] = target: 5-hydroxytryptamine receptor 1A (Homo sapiens, UniProt P08908); assay: Binding affinity to human 5-HT1A receptor by radioligand displacement assay
[28] = target: T4, Muscarinic acetylcholine receptor M2 (Homo sapiens, UniProt P08172); assay: Binding affinity to human muscarinic M2 receptor by radioligand displacement assay
T4 sequence (P08172 whole entry): T1 sequence (whole entry)

[29] = target: T5, Muscarinic acetylcholine receptor M4 (Homo sapiens) (UniProt P08173); assay: Agonist activity at human muscarinic M4 receptor expressed in BHK-21 cells coexpressing Galpha16 subunit assessed as increase of acetylcholine-induced calcium flux at 10 uM by FLIPR assay relative to acetylcholine; format: functional, cell-based
T5 sequence (whole entry): T2 sequence (P08173 whole entry)

[30] = Binding affinity to human Ca2+ channel diltiazem site by radioligand displacement assay
[31] = test system: Hepatocyte; assay: Intrinsic clearance in human hepatocytes at 1 uM after up to 120 mins by LC/MS-MS analysis; format: ADME, cell-based, Liver; settings: 2 h

T3 sequence (P14416 whole entry): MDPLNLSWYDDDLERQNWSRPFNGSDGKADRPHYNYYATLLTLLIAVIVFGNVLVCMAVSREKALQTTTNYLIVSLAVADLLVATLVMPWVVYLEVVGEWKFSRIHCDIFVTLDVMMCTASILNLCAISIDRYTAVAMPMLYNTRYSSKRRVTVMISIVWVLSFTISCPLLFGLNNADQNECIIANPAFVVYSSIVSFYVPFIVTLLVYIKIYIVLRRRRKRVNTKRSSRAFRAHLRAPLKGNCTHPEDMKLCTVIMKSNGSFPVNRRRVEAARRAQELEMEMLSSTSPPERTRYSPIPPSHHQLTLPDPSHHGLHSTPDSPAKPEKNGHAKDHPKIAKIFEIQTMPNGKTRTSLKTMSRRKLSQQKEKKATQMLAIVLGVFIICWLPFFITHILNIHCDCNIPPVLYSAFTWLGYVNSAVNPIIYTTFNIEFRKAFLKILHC
Sequence of Adenosine receptor A3 (P0DMS8 whole entry): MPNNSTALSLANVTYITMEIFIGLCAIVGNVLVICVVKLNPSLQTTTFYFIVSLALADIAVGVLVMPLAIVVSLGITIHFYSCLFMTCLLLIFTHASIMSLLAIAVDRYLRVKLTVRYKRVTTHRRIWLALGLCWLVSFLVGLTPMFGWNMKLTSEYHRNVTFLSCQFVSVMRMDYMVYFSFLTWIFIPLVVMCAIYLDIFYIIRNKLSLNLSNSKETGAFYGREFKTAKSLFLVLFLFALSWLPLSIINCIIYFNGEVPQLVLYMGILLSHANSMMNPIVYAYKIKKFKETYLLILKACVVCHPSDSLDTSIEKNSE
Sequence of Ribosyldihydronicotinamide dehydrogenase [quinone] (P16083 whole entry): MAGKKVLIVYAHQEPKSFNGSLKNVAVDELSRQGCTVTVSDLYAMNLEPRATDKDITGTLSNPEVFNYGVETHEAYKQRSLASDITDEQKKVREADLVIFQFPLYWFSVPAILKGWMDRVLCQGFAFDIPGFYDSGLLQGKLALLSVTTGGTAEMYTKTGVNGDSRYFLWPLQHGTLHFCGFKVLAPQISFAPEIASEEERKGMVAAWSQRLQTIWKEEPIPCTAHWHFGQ
Sequence of Sodium-dependent noradrenaline transporter (P23975 whole entry): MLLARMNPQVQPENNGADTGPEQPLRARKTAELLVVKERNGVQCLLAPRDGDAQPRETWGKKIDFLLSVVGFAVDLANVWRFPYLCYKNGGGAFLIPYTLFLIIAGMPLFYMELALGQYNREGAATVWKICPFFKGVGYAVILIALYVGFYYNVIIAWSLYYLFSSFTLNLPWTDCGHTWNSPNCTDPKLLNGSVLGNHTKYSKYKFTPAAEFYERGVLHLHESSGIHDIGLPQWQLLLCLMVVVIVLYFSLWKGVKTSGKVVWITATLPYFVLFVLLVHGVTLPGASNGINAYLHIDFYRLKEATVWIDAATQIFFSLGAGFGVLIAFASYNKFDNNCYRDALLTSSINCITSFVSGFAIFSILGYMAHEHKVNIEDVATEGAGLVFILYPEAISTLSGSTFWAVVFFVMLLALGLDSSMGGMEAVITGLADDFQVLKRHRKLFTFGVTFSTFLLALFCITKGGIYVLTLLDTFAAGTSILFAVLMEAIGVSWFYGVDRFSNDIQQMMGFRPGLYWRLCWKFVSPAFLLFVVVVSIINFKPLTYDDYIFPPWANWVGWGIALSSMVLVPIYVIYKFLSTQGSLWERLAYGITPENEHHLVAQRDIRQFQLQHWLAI
Sequence of Histamine H1 receptor (P35367 whole entry): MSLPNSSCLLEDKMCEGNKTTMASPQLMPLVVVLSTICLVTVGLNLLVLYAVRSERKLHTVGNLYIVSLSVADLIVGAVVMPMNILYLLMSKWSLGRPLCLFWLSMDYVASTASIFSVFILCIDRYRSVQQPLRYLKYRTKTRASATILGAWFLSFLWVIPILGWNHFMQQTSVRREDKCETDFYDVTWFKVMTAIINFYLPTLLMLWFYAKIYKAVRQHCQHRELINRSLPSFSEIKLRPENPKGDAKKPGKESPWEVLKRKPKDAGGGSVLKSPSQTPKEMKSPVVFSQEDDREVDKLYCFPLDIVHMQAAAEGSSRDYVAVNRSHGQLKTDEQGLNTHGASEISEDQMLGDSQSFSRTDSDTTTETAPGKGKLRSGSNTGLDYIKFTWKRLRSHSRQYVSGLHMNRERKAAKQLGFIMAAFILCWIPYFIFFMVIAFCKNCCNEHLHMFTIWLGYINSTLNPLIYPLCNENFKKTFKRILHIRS
Sequence of 5-hydroxytryptamine receptor 1A (P08908 whole entry): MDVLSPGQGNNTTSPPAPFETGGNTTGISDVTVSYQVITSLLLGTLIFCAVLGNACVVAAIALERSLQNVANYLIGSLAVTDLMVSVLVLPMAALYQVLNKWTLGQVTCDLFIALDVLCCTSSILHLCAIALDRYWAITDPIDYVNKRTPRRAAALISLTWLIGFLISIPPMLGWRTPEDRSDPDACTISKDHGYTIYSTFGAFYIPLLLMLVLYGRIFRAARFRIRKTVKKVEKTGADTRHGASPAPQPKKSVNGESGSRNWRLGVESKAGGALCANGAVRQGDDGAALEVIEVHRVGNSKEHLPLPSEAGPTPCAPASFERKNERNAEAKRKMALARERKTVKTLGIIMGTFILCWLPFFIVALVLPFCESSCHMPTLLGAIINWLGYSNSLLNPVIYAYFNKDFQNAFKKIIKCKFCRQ
Sequence of Alpha-1D adrenergic receptor (P25100 whole entry): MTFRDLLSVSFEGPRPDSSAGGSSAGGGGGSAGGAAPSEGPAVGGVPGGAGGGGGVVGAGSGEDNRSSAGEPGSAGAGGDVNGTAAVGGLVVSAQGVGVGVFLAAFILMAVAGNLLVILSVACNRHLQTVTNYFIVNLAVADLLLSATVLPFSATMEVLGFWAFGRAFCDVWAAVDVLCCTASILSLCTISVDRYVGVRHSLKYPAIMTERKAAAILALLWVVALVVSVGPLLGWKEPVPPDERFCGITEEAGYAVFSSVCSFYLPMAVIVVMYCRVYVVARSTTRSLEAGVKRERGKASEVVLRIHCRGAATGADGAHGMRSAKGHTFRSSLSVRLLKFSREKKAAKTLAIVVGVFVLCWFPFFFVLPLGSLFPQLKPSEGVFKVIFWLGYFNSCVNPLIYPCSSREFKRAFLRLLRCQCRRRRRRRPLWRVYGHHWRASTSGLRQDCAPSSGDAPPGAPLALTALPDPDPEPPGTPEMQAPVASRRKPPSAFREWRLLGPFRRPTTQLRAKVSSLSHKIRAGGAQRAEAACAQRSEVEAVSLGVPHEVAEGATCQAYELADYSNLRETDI
Sequence of 5-hydroxytryptamine receptor 4 (Q13639 whole entry): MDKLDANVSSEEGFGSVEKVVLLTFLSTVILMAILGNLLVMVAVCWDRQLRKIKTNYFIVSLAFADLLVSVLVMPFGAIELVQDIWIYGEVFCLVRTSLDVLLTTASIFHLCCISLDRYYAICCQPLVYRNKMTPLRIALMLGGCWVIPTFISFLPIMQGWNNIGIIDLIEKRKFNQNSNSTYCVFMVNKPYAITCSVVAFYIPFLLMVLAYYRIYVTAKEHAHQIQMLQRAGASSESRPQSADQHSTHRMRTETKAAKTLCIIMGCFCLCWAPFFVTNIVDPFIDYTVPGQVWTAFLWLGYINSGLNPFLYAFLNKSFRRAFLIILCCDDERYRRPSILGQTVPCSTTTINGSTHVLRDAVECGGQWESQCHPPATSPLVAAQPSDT
Sequence of Muscarinic acetylcholine receptor M1 (P11229 whole entry Y381A): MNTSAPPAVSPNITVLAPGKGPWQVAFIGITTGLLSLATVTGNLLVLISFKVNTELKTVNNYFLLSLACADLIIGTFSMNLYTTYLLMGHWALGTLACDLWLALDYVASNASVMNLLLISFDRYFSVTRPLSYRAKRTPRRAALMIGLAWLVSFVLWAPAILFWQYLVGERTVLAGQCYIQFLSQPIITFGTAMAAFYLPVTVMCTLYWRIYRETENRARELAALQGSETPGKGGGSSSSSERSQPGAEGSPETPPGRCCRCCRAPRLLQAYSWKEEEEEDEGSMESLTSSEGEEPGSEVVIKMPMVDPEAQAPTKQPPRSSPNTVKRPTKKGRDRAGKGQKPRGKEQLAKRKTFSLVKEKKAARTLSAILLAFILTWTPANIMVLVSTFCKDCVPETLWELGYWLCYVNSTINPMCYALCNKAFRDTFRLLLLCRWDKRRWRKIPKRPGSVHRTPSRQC
Sequence of 5-hydroxytryptamine receptor 1B (P28222 whole entry): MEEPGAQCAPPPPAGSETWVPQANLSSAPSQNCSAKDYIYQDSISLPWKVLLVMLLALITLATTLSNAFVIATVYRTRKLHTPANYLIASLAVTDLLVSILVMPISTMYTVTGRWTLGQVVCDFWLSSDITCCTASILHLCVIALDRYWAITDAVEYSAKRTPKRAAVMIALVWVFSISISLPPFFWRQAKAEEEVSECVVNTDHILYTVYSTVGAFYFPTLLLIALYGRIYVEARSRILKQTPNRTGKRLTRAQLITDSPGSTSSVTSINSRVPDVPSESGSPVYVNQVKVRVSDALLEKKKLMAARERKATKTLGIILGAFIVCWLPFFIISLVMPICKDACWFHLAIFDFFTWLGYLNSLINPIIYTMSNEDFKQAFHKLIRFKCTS
Sequence of Amine oxidase [flavin-containing] A (P21397 whole entry): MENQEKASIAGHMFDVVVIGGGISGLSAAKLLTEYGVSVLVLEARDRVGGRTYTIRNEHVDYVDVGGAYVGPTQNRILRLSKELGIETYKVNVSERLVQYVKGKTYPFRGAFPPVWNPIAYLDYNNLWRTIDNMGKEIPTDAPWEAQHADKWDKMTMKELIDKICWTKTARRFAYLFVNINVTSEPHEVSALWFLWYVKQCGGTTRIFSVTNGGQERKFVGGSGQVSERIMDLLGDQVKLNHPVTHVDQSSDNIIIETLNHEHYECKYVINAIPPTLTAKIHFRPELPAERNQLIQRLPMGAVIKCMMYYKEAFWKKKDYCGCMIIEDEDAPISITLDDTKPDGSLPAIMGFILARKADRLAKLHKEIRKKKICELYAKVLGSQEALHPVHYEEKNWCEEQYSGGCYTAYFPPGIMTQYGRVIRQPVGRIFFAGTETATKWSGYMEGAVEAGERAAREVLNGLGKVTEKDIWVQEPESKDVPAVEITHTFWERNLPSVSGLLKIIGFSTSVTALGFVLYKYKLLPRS

O=C(Cc1ccccc1)NC1CCN(CCCN2C(=O)COc3ccccc32)CC1
Emax [1]: 0%
Ki [2]: ≥ 1000 nM
Ki [3]: ≥ 1000 nM
concentration at 1 h [4]: 240 ng/g
Ki [5]: ≥ 1000 nM
Ki [6]: ≥ 1000 nM
EC50 [7]: 97 nM
clearance [8]: 83.3 mL/min/kg
Ki [9]: >= 1000 nM
Ki [10]: 6900 nM
Ki [11]: ≥ 1000 nM
Ki [12]: ≥ 1000 nM
Ki [13]: ≥ 1000 nM
Ki [14]: ≥ 1000 nM
Ki [15]: ≥ 1000 nM
Ki [16]: ≥ 1000 nM
Ki [17]: ≥ 1000 nM
Ki [18]: ≥ 1000 nM
Ki [19]: ≥ 1000 nM
Ki [20]: 780 nM
Tmax [21]: 48 min
Ki [22]: ≥ 1000 nM
Ki [23]: ≥ 1000 nM
Activity [24]: 80%
Ki [25]: ≥ 1000 nM
Activity [26]: Dose-dependent effect
Ki [27]: ≥ 1000 nM
Ki [28]: ≥ 1000 nM
Emax [29]: 6%
Ki [30]: ≥ 1000 nM
CL [31]: 3.4 L/min
